T1: mature StHSD (heat-treated) (Sulfurisphaera tokodaii, UniProt F9VNG5)
T1 construct: gene hom; full length (residues 1-304 described), recombinant from plasmid pSTHSD in E. coli BL21, matured by heat treatment (343 K); homodimer
T1 sequence (F9VNG5 1-304): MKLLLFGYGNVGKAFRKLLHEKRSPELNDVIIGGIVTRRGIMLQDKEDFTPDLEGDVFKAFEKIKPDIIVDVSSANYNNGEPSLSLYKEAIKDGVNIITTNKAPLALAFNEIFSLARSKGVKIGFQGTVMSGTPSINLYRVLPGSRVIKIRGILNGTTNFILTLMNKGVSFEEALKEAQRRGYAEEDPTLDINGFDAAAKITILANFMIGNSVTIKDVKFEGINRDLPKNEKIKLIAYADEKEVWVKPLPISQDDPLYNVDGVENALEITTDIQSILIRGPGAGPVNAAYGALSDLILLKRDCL

T2: immature StHSD (not heat-treated) (Sulfurisphaera tokodaii, UniProt F9VNG5)
T2 construct: gene hom; full length (residues 1-304 described), recombinant from plasmid pSTHSD in E. coli BL21 at 310 K, purified without heat treatment; homodimer with C303-C303 intersubunit disulfide (oxidized)
T2 sequence (F9VNG5 1-304): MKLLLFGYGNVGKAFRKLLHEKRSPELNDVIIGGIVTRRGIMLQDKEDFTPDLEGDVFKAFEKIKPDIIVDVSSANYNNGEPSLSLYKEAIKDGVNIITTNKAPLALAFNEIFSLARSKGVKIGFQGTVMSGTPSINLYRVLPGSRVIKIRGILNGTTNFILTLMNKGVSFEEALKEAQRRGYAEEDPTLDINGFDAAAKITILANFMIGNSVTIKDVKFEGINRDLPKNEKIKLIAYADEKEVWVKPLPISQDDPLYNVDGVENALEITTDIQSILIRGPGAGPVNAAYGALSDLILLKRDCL


What was measured:
[1] = biological target: T1, mature StHSD (heat-treated); test: initial velocity of NADH production at […] nm; Morrison fit; assay type: biochemical; details: read-out: apparent Ki
[2] = biological target: T2, immature StHSD (not heat-treated); test: as above; assay type: biochemical; details: read-out: apparent Ki
[3] = biological target: the molecule itself; test: crystal structure; hanging-drop vapor diffusion at 295 K; immature enzyme as apo-form (IM) and with NADP+ and 1,4-butanediol (IM/NADP/BU); space group P2(1), two subunits in the asymmetric unit

Row | Ki [1] [µM] | Ki [2] [µM] | Molecule | stoichiometry N [3] [subunits]
1 | 48 ± 1.2 | 26 ± 1.7 | NC(=O)c1ccc[n+]([C@@H]2O[C@H](COP(=O)(O)OP(=O)(O)OC[C@H]3O[C@@H](n4cnc5c(N)ncnc54)[C@H](OP(=O)(O)O)[C@@H]3O)[C@@H](O)[C@H]2O)c1 [NADP^+] | –
2 | – | – | homoserine dehydrogenase from the hyperthermophilic archaeon Sulfurisphaera tokodaii strain 7 (StHSD), immature enzyme (enzyme, disulfide bond between the C303 residues of the two subunits, homoserine dehydrogenase, Sulfurisphaera tokodaii strain 7; The same recombinant enzyme after heat treatment is called the mature enzyme (cited structures 4YDR, 5X9D); The IM/NADP/BU crystal form also holds NADP+ and 1,4-butanediol; also called immature StHSD; IM/NADP/BU; source: Blue Sepharose for the apo-form) MKLLLFGYGNVGKAFRKLLHEKRSPELNDVIIGGIVTRRGIMLQDKEDFTPDLEGDVFKAFEKIKPDIIVDVSSANYNNGEPSLSLYKEAIKDGVNIITTNKAPLALAFNEIFSLARSKGVKIGFQGTVMSGTPSINLYRVLPGSRVIKIRGILNGTTNFILTLMNKGVSFEEALKEAQRRGYAEEDPTLDINGFDAAAKITILANFMIGNSVTIKDVKFEGINRDLPKNEKIKLIAYADEKEVWVKPLPISQDDPLYNVDGVENALEITTDIQSILIRGPGAGPVNAAYGALSDLILLKRDCL | 2

From paper PMC9283420, “Conformational changes in the catalytic region are responsible for heat-induced activation of hyperthermophilic homoserine dehydrogenase” (Communications Biology, 2022)
